Laboratory results published in ChEMBL document CHEMBL3853264 (Medchemcomm, 2016).

Assays:
Homo sapiens = species: Homo sapiens; experiment: Reduction in serum ureate in human at >450 mg, bid; assay type: functional; set-up: scale not given: the % may be the effect or the level left
[1] = Unbound clearance in dog at 0.1 mg/kg, iv and 3 mg/kg, po; assay type: ADME, organism-based, Canis lupus familiaris; details: in vivo
[2] = Oral bioavailability in rat at 3 mg/kg; assay type: ADME, organism-based; details: in vivo
[3] = Half life in dog at 0.1 mg/kg, iv and 3 mg/kg, po; assay type: ADME, organism-based, Canis lupus familiaris; details: in vivo
[4] = Volume of distribution at steady state in dog at 0.1 mg/kg, iv and 3 mg/kg, po; assay type: ADME, organism-based, Canis lupus familiaris; details: in vivo, read-out: Vdss
[5] = Unbound average plasma concentration in human at >450 mg, bid; assay type: ADME
[6] = Oral bioavailability in dog at 3 mg/kg; assay type: ADME, organism-based, Canis lupus familiaris; details: in vivo
[7] = Unbound clearance in rat at 1 mg/kg, iv and 3 mg/kg, po; assay type: ADME, organism-based; details: in vivo
[8] = Volume of distribution at steady state in rat at 1 mg/kg, iv and 3 mg/kg, po; assay type: ADME, organism-based; details: in vivo, read-out: Vdss
[9] = Lipophilicity, log D of the compound; assay type: physicochemical; details: octanol/water
[10] = Plasma clearance in dog at 0.1 mg/kg, iv and 3 mg/kg, po; assay type: ADME, organism-based, Canis lupus familiaris

Molecule Nc1[nH]ncc1-c1cc(Cl)ccc1Oc1cc(F)c(S(=O)(=O)Nc2cscn2)cc1Cl [PF-05089771] has an Activity (Homo sapiens) of 50%, a CL free [1] of 641 mL/min/kg and a bioavailability [2] of 27%. The half-life [3] was 84 min, the Vd [4] was 0.31 L/kg and the “Cp(f)” value [5] was 60 nM. It also gave a bioavailability [6] of 35%, a CL free [7] of 447 mL/min/kg and a Vd [8] of 1.3 L/kg. For the same molecule, the logD [9] was 2.6 and the clearance [10] was 4.8 mL/min/kg.
